Molecules are shown by their SMILES.

This note sets out measurements from ChEMBL document CHEMBL1132181, “Prodrugs for amidines: synthesis and anti-Pneumocystis carinii activity of carbamates of 2,5-bis(4-amidinophenyl)furan” (J Med Chem, 1999).

The test system of series [1] is Pneumocystis carinii. Kind of series: The compound was tested in vivo against Pneumocystis carinii pneumonia (PCP) in the immunosuppressed rat model at oral dose of 33.0(umol/kg/day). The series is classed as functional.
Series [2] deals with Rattus norvegicus. Kind of series: Toxicity is evaluated according to a five-level scale ranging from 0 to 5+ at the specified iv dose of 22.0 (umol/kg/day). The conditions noted are these: in vivo. In kind it is organism-based.
For series [3], the system named is Pneumocystis carinii. Kind of series: The compound was tested in vivo against Pneumocystis carinii pneumonia (PCP) in the immunosuppressed rat model at iv dose of 22.0 (umol/kg/day). In kind it is functional.
Series [4] has as its system Rattus norvegicus. Briefly: Toxicity is evaluated according to a five-level scale ranging from 0 to 5+ at the specified oral dose of 33.0 (umol/kg/day). In kind it is organism-based. The conditions noted are these: in vivo.
For series [5], the system named is Rattus norvegicus. Briefly: Toxicity is evaluated according to a five-level scale ranging from 0 to 5+ at the specified iv dose of 11.0 (umol/kg/day). The series is classed as organism-based. The settings on record: in vivo.
For series [6], the system named is Pneumocystis carinii. Kind of series: The compound was tested in vivo against Pneumocystis carinii pneumonia (PCP) in the immunosuppressed rat model at iv dose of 11.3(umol/kg/day). In kind it is functional.
The test system of series [7] is Rattus norvegicus. Briefly: Toxicity is evaluated according to a five-level scale ranging from 0 to 5+ at the specified iv dose of 34.7 (umol/kg/day). In kind it is organism-based. The settings on record: in vivo.
Series [8] has as its system Pneumocystis carinii. Briefly: The compound was tested in vivo against Pneumocystis carinii pneumonia (PCP) in the immunosuppressed rat model at iv dose of 34.7 (umol/kg/day). In kind it is functional.
Series [9] has as its system Pneumocystis carinii. Briefly: The compound was tested in vivo against Pneumocystis carinii pneumonia (PCP) in the immunosuppressed rat model at iv dose of 11.0 (umol/kg/day). In kind it is functional.
Series [10] relates to Pneumocystis carinii. Kind of series: The compound was tested in vivo against Pneumocystis carinii pneumonia (PCP) in the immunosuppressed rat model at oral dose of 39.8(umol/kg/day). In kind it is functional.
Series [11] relates to Pneumocystis carinii. Briefly: The compound was tested in vivo against Pneumocystis carinii pneumonia (PCP) in the immunosuppressed rat model at iv dose of 13.3 (umol/kg/day). In kind it is functional.
Series [12] has as its system Rattus norvegicus. Briefly: Toxicity is evaluated according to a five-level scale ranging from 0 to 5+ at the specified oral dose of 39.8 (umol/kg/day). The series is classed as organism-based. The conditions noted are these: in vivo.
In series [13] the test system is Rattus norvegicus. Kind of series: Toxicity is evaluated according to a five-level scale ranging from 0 to 5+ at the specified iv dose of 13.3 (umol/kg/day). In kind it is organism-based. The settings on record: in vivo.

For `CCSC(=O)NC(=N)c1ccc(-c2ccc(-c3ccc(C(=N)NC(=O)SCC)cc3)o2)cc1`, the Control in the series with Pneumocystis carinii [1] worked out at 19.52%; with Pneumocystis carinii [3], 83.01%. Besides, the Toxicity in the series on Rattus norvegicus [2] and in the series with Rattus norvegicus [4] was 0 in each case.

For `Cc1oc(=O)oc1COC(=O)NC(=N)c1ccc(-c2ccc(-c3ccc(C(=N)NC(=O)OCc4oc(=O)oc4C)cc3)o2)cc1`, the results for the Control in the series on Pneumocystis carinii [1] and with Pneumocystis carinii [3] were 18.73% and 0.02%, respectively. Moreover, the Toxicity in the series on Rattus norvegicus [2] and in the series on Rattus norvegicus [4] was 0 in each case.

Take `COc1ccc(OC(=O)NC(=N)c2ccc(-c3ccc(-c4ccc(C(=N)NC(=O)Oc5ccc(OC)cc5)cc4)o3)cc2)cc1`: the Control is 2.1% in the series with Pneumocystis carinii [1] and 0.02% in the series with Pneumocystis carinii [3]. In addition, the Toxicity in the series on Rattus norvegicus [2] and with Rattus norvegicus [4] was 0 in each case.

For `N=C(NC(=O)OCc1ccccc1)c1ccc(-c2ccc(-c3ccc(C(=N)NC(=O)OCc4ccccc4)cc3)o2)cc1`, the figures for the Control with Pneumocystis carinii [1] and with Pneumocystis carinii [6] were 18.09% and 0.03%, respectively. Besides, the Toxicity with Rattus norvegicus [5] and with Rattus norvegicus [4] was 0 each time.

`N=C(NC(=O)Oc1ccc(F)cc1)c1ccc(-c2ccc(-c3ccc(C(=N)NC(=O)Oc4ccc(F)cc4)cc3)o2)cc1`: the Control came out at 2.21% in the series on Pneumocystis carinii [1] and 0.02% with Pneumocystis carinii [3]. For the same molecule, the Toxicity with Rattus norvegicus [2] and with Rattus norvegicus [4] was 0 in each case.

On to `COC(=O)NC(=N)c1ccc(-c2ccc(-c3ccc(C(=N)NC(=O)OC)cc3)o2)cc1`, for which the figures for the Control in the series with Pneumocystis carinii [1] and in the series on Pneumocystis carinii [3] were 49.68% and 6.91%, respectively. Moreover, the Toxicity in the series on Rattus norvegicus [2] and in the series on Rattus norvegicus [4] was 0 each time.

As for `N=C(NC(=O)Oc1ccccc1)c1ccc(-c2ccc(-c3ccc(C(=N)NC(=O)Oc4ccccc4)cc3)o2)cc1`, the figures for the Control in the series with Pneumocystis carinii [1] and with Pneumocystis carinii [3] were 5.7% and 3.61%, respectively. For the same molecule, the Toxicity in the series with Rattus norvegicus [2] and in the series with Rattus norvegicus [4] was 0 in each case.

With `CCOC(=O)ONC(=N)c1ccc(-c2ccc(-c3ccc(C(=N)NOC(=O)OCC)cc3)o2)cc1`, the Toxicity with Rattus norvegicus [7] and with Rattus norvegicus [4] was 0 each time. For the same molecule, the Control in the series with Pneumocystis carinii [1] was 96.9%; in the series on Pneumocystis carinii [8], 1.66%.

Regarding `N/C(=N\C(=O)OCC(Cl)(Cl)Cl)c1ccc(-c2ccc(-c3ccc(/C(N)=N\C(=O)OCC(Cl)(Cl)Cl)cc3)o2)cc1`, the Control in the series on Pneumocystis carinii [1] came out at 8.59%; in the series on Pneumocystis carinii [3], 1.85%. Besides, the Toxicity with Rattus norvegicus [2] and with Rattus norvegicus [4] was 0 in each case.

For `CC(=O)OC(C)OC(=O)NC(=N)c1ccc(-c2ccc(-c3ccc(C(=N)NC(=O)OC(C)OC(C)=O)cc3)o2)cc1` (centres undefined), the figures for the Control with Pneumocystis carinii [9] and with Pneumocystis carinii [1] were 1.21% and 57.16%, respectively. In addition, the Toxicity in the series with Rattus norvegicus [4] is reported as 0.

`N=C(N)c1ccc(-c2ccc(-c3ccc(C(=N)N)cc3)o2)cc1` [FURAMIDINE]: the Control worked out at 44.52% in the series with Pneumocystis carinii [10] and 0.83% in the series on Pneumocystis carinii [11]. Further, the Toxicity with Rattus norvegicus [12] and with Rattus norvegicus [13] was 0 throughout.

In turn, `N=C(N)c1ccc(OCCCCCOc2ccc(C(=N)N)cc2)cc1` [PENTAMIDINE] showed a Control with Pneumocystis carinii [3] of 3.06%.
